The subject of experiment [1] is Gs and Gq proteins. The experiment is described as follows: Gs and Gq siRNA knockdown effect on impedance signature of GiPCR agonists in osteoblasts. Format: cell-based, human. On the procedure: Osteoblasts from control subjects and AIS patients of each functional group were transfected with scramble siRNA, Gs siRNA, or Gq siRNA. Efficiency of siRNA in control and AIS groups was verified with qPCR and Western blot analyses 48 hours after transfection, and response to stimulation with GiPCR agonist of cluster I, cluster II, cluster III and cluster IV was evaluated by challenging cells with 10 μM of (FIG. 14A-14D) LPA, (FIG. 14EA-14H) CB65, (FIG. 14I-14L) Somatostatin and (FIG. 14M-14P) Apelin-17, respectively. […] The impedance represented in y-axis as dziec was measured every 2 sec. Data are representative of impedance signatures generated by CellKey™ system in osteoblasts from 12 individuals tested three times in duplicate for each group.;
All Gi1, Gi2, Gi3, Gs and scrambled siRNA were obtained from Ambion (Ambion USA). The sequences used for gene silencing are shown in supplemental Table 3. Osteoblasts from control subjects and AIS patients were transiently transfected in serum-free medium, using Lipofectamine RNAiMAX reagent (Invitrogen) according to the manufacturer's instructions and functional experiments were performed 48 h post transfection. The gene knockdown was evaluated by quantitative real-time PCR (qPCR).
The possibility that the disparity in the shape of impedance among AIS groups in response to GiPCR activation implicates a component of Gs or Gq proteins-dependent response was then […] examined For this purpose, the small interference RNA (siRNA) approach was used to knockdown Gs or Gq proteins prior to stimulate cells.

Experiment [2] has as its system osteoblasts from control and AIS patients. Description: cells. As to the method:
The targeted endogenous receptors are shown in parentheses. The impedance represented in y-axis as dziec was measured by the Cellkey™ system every 2 sec. Data are representative of impedance signature in osteoblasts from 12 individuals tested three times in duplicate for each group;
A total of ten compounds were tested and the representative refraction index curves generated by each of these compounds in control and AIS osteoblasts are illustrated in FIGS. 10A-10J).

For experiment [3], the system named is PBMCs from patients with IS. Description: Effect of rOPN on cellular response to Gi stimulation (somatostatin) in PBMCs, CDS-based system. Type of experiment: cell-based, human. Particulars: 0.5 μg/mL rOPN 18 h, 10 μM somatostatin. On the procedure:
Cells were serum-starved for 18 h in the presence or absence of 0.5 μg/mL rOPN and then stimulated with 10 μM of somatostatin to initiate Gi-mediated cellular response. Data in the graph were generated from maximum-minimum impedance and correspond to the average of response in duplicate;
3. Functional Assay: Day 1: 1. Place PBMCs aliquot from liquid nitrogen in water bath at 37° C. for a minute or until defrosted. 2. Transfer the cell suspension to a 50 mL tube with a sterile pipette. 3. Add 15 mL of Complete media and spin the cells down at 200×g for 5 minutes at room temperature. 4. Remove the supernatant by aspiration. 5. Gently suspend cell pellet in 1 mL of PHA media. 6. Complete the volume to 20 mL with the same media. 7. Cap the tube loosely to allow air to enter. 8. Leave the tube overnight at 37 ° C. in a CO2 incubator to allow quiescent lymphocytes to transform into rapidly-proliferating lymphoblasts.
Day 2: 1. Take the tube out of the incubator, screw the caps completely and spin the cells down at 200×g for 5 min at room temperature. 2. Remove the supernatant by aspiration. 3. Gently suspend cell pellet in 1 mL of complete media. 4. Complete the volume to 20 mL with the same media. 5. Cap the tube loosely to allow air to enter. 6. Leave the tube overnight at 37° C. in a CO2 incubator to expand cell numbers.
Day 3: 1. Take the tube out of the incubator, screw the caps completely and spin the cells down at 200×g for […] at room temperature. 2. Remove the supernatant by aspiration. 3. Wash cells twice with 10 mL of RPMI-1640 (media developed for growing human normal and neoplastic leukocytes (peripheral blood lymphocytes)) by centrifugation at 200×g for […] at room temperature. 4. Gently re-suspend the cell pellet in 600 μL of RPMI-1640. 5. Measure the cell concentration and viability, using an automated cell counter and viability analyzer. 6. Add appropriate volume of RPMI-1640 to adjust to a cell concentration of 1.5×10^5 cell/20 μL. 7. Treat cells with recombinant OPN (rOPN) or vehicle (PBS). 7.1 Transfer 100 μL of cell suspension to two sterile 1.5 ml eppendorf tubes. […]

The mark [4] stands for this setting: Homo sapiens, Osteoblast, read-out: Control EC50 (nM).
[5] abbreviates: Homo sapiens, Osteoblast, read-out: FG1 EC50 (nM).
The mark [6] stands for this setting: Homo sapiens, Osteoblast, read-out: FG2 EC50 (nM).
The mark [7] stands for this setting: Homo sapiens, Osteoblast, read-out: FG3 EC50 (nM).

This is an account of results in US20190178896A1, “MARKER FOR THE CLASSIFICATION, DIAGNOSIS AND TREATMENT OF SCOLIOSIS” (Chu Sainte-Justine, priority 2013, published 2019).

Counter-ions that a name gives are not always drawn. Like-named read-outs stand apart in the source and are kept apart here.

Take `CSCC[C@H](NC(=O)[C@@H]1CCCN1C(=O)CNC(=O)[C@H](CCCCN)NC(=O)[C@H](Cc1c[nH]cn1)NC(=O)[C@H](CO)NC(=O)[C@H](CC(C)C)NC(=O)[C@H](CCCNC(=N)N)NC(=O)[C@@H]1CCCN1C(=O)[C@H](CCCNC(=N)N)NC(=O)[C@H](CCC(N)=O)NC(=O)[C@H](CCCNC(=N)N)NC(=O)[C@H](CCCNC(=N)N)NC(=O)[C@H](Cc1ccccc1)NC(=O)[C@@H](N)CCCCN)C(=O)N1CCC[C@H]1C(=O)N[C@@H](Cc1ccccc1)C(=O)O` [Apelin-17]: the “Gs coupling (permissive) of agonist/GiPCR” value in experiment [1] (FG1), in experiment [1] (FG2) and in experiment [1] (FG3) was “Apelin-17/Gs−” in each case.
As to `c1ccc(N2CCN(CCCOc3ccc4c(c3)OCO4)CC2)cc1` [BP554, 1-[3-(3,4-Methylenedioxyphenoxy)propyl]-4-phenyl-piperazine maleate], the EC50 in experiment [2] (setting [4]) was found to be 22.3 ± 1.7 nM; in experiment [2] (setting [5]), 22.3 ± 2.3 nM; in experiment [2] (setting [6]), 22.5 ± 1.6 nM; in experiment [2] (setting [7]), 22.4 ± 1.5 nM.
In the same order, the values of `Brc1c(NC2=NCCN2)ccc2nccnc12` [UK14304, 5-bromo-N-(4,5-dihydro-1H-imidazol-2-yl)-6-quinoxalinamine] are 16.5 ± 2.3 nM, 18.5 ± 4.2 nM, 16.6 ± 1.6 nM and 17.8 ± 1.3 nM.
Take `O=C(NC1CCCCC1)c1cn(CCN2CCOCC2)c2cc(Cl)ccc2c1=O` [CB65, N-Cyclohexyl-7-chloro-1-[2-(4-morpholinyl)ethyl]quinolin-4(1H)-one-3-carboxamide]: the EC50 in experiment [2] (setting [4]) was found to be 13.9 ± 1.2 nM; in experiment [2] (setting [5]) it was 14 ± 1.2 nM; in experiment [2] (setting [6]), 13.7 ± 1.2 nM; in experiment [2] (setting [7]), 13.9 ± 1.3 nM. Also, the “Gs coupling (permissive) of agonist/GiPCR” value in experiment [1] (FG1) is “CB65/Gs+”; in experiment [1] (FG2), “CB65/Gs−”; in experiment [1] (FG3), “CB65/Gs−”.
Take `CCNC(=O)[C@H]1O[C@@H](n2cnc3c(N)ncnc32)[C@H](O)[C@@H]1O` [NECA, 1-(6-Amino-9H-purin-9-yl)-1-deoxy-N-ethyl-β-D-ribofuranuronamide]: the concentration giving a half-maximal response (EC50) in experiment [2] (setting [4]) is 20.9 ± 2.2 nM; in experiment [2] (setting [5]) it was 20.9 ± 1.7 nM; in experiment [2] (setting [6]) it was 20.8 ± 1.2 nM; in experiment [2] (setting [7]), 22.2 ± 2.2 nM.
For Lysophosphatidic acid [LPA], the EC50 was determined as 8.52 ± 1.5 nM in experiment [2] (read-out: Control EC50, impedance response, osteoblasts from control subjects); 8.78 ± 0.6 nM in experiment [2] (read-out: FG1 EC50, impedance response, osteoblasts from AIS patients of group FG1); 8.54 ± 1.4 nM in experiment [2] (read-out: FG2 EC50, impedance response, osteoblasts from AIS patients of group FG2); 8.59 ± 1.2 nM in experiment [2] (read-out: FG3 EC50, impedance response, osteoblasts from AIS patients of group FG3). The “Gs coupling (permissive) of agonist/GiPCR” value in experiment [1] (FG1) was “LPA/Gs+”. Also, the “Gq coupling (permissive) of agonist/GiPCR” value in experiment [1] (FG2) and in experiment [1] (FG3) was “LPA/Gq+” throughout.
With `COc1ccc2[nH]cc(CCNC(C)=O)c2c1` [Melatonin, melatonin], the concentration for a half-maximal effect (EC50) was 33.4 ± 8.4 nM in experiment [2] (setting [4]), 42.3 ± 9.4 nM in experiment [2] (setting [5]), 48.7 ± 6.4 nM in experiment [2] (setting [6]) and 45.8 ± 5.3 nM in experiment [2] (setting [7]).
Take “OPN: recombinant human osteopontin (R & D Systems)”: the “reduction of response to Gi stimulation following rOPN treatment” value in experiment [3] (patient 370) is listed as “less than 50%”; in experiment [3] (patients 345 and 382) it was “more than 50%”. Further, the “OPN effect on the response to Gi stimulation” value in experiment [3] (patients 353 and 371) was “increased the response”.

Usually EC50 stands for the concentration at which the effect is half-maximal.
